Source: PubChem BioAssay AID2060506 (Molecular Pharmacology Branch, DTP, NCI, 2025)

Tested on: 598228-144-R-J1-PDC complex spheroid viability
Assay: Anticancer human tumor 598228-144-R-J1-PDC patient-derived serous endometrial adenocarcinoma cell line growth inhibition [GQUAD]
Settings: for IC50: curve of first compound; for viability, T/C: stronger effect = lower value
Procedure, shortened: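 Tumor cells were grown as complex spheroids with HUVEC endothelial cells and mesenchymal stem cells as stroma. G-quadruplex stabilizers were combined with targeted agents over half-log dilutions from near the clinical Cmax, or from 10 microM.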

[1] = second compound 0.0316 µM, first compound 0.0316 µM
[2] = second compound 0.0316 µM, first compound 0.1 µM
[3] = second compound 0.0316 µM, first compound 0.316 µM
[4] = second compound 0.0316 µM, first compound 1 µM
[5] = second compound 0.0316 µM, first compound 3.16 µM
[6] = second compound 0.0316 µM, first compound 10 µM
[7] = second compound 0.1 µM, first compound 0.0316 µM
[8] = second compound 0.1 µM, first compound 0.1 µM
[9] = second compound 0.1 µM, first compound 0.316 µM
[10] = second compound 0.1 µM, first compound 1 µM
[11] = second compound 0.1 µM, first compound 3.16 µM
[12] = second compound 0.1 µM, first compound 10 µM
[13] = second compound 0.316 µM, first compound 0.0316 µM
[14] = second compound 0.316 µM, first compound 0.1 µM
[15] = second compound 0.316 µM, first compound 0.316 µM
[16] = second compound 0.316 µM, first compound 1 µM
[17] = second compound 0.316 µM, first compound 3.16 µM
[18] = second compound 0.316 µM, first compound 10 µM
[19] = second compound 1 µM, first compound 0.0316 µM
[20] = second compound 1 µM, first compound 0.1 µM
[21] = second compound 1 µM, first compound 0.316 µM
[22] = second compound 1 µM, first compound 1 µM
[23] = second compound 1 µM, first compound 3.16 µM
[24] = second compound 1 µM, first compound 10 µM
[25] = second compound 3.16 µM, first compound 0.0316 µM
[26] = second compound 3.16 µM, first compound 0.1 µM
[27] = second compound 3.16 µM, first compound 0.316 µM
[28] = second compound 3.16 µM, first compound 1 µM
[29] = second compound 3.16 µM, first compound 3.16 µM
[30] = second compound 3.16 µM, first compound 10 µM
[31] = second compound 10 µM, first compound 0.0316 µM
[32] = second compound 10 µM, first compound 0.1 µM
[33] = second compound 10 µM, first compound 0.316 µM
[34] = second compound 10 µM, first compound 1 µM
[35] = second compound 10 µM, first compound 3.16 µM
[36] = second compound 10 µM, first compound 10 µM
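Further: spheroids exposed to the agents for one week before reading.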
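Wherever viability, T/C is given: percent of vehicle DMSO control viability so 100% = untreated growth.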

In the case of C=CCn1c(=O)c2cnc(Nc3ccc(N4CCN(C)CC4)cc3)nc2n1-c1cccc(C(C)(C)O)n1 + CN(C)c1ccc(Nc2c3ccc(NC(=O)CCN4CCCC4)cc3nc3cc(NC(=O)CCN4CCCC4)ccc23)cc1, the IC50 (second compound 0.0316 µM) is reported as 913 nM, the IC50 (second compound 0.1 µM) is reported as 1410 nM and the IC50 (second compound 0.316 µM) is reported as greater than 10000 nM. It also gave an IC50 (second compound 1 µM) of 2290 nM, an IC50 (second compound 3.16 µM) of 611 nM and an IC50 (second compound 10 µM) of 233 nM. The viability, T/C [1] was 85.4%, the viability, T/C [2] was 99.5% and the viability, T/C [3] was 65%. For the same molecule, the viability, T/C [4] was 44.2%, the viability, T/C [5] was 53.7% and the viability, T/C [6] was 48.2%. It also gave a viability, T/C [7] of 109%, a viability, T/C [8] of 97% and a viability, T/C [9] of 74.4%. The viability, T/C [10] was 47%, the viability, T/C [11] was 50.9% and the viability, T/C [12] was 45.3%. It also gave a viability, T/C [13] of 107%, a viability, T/C [14] of 83.6% and a viability, T/C [15] of 54%. The viability, T/C [16] was 52.5%, the viability, T/C [17] was 51.7% and the viability, T/C [18] was 52%. The viability, T/C [19] was 103%, the viability, T/C [20] was 79.3% and the viability, T/C [21] was 67.9%. The viability, T/C [22] was 50.8%, the viability, T/C [23] was 47.6% and the viability, T/C [24] was 47.7%. It also gave a viability, T/C [25] of 131%, a viability, T/C [26] of 88.3% and a viability, T/C [27] of 63.3%. The viability, T/C [28] was 32.1%, the viability, T/C [29] was 46.1% and the viability, T/C [30] was 21.9%. It also gave a viability, T/C [31] of 88.6%, a viability, T/C [32] of 72.8% and a viability, T/C [33] of 39.8%. It also gave a viability, T/C [34] of 21.7%, a viability, T/C [35] of 8.8% and a viability, T/C [36] of 4.75%.
In the case of CC1COCCN1c1cc(C2(O)CC3CCC(C2)O3)c2cnn(-c3ccn[nH]3)c2n1 (stereo unspecified) + CN(C)c1ccc(Nc2c3ccc(NC(=O)CCN4CCCC4)cc3nc3cc(NC(=O)CCN4CCCC4)ccc23)cc1, the IC50 (second compound 0.0316 µM) is reported as 72.8 nM, the IC50 (second compound 0.1 µM) is reported as 90 nM and the IC50 (second compound 0.316 µM) is reported as 130 nM. For the same molecule, the IC50 (second compound 1 µM) was 162 nM, the IC50 (second compound 3.16 µM) was 146 nM and the IC50 (second compound 10 µM) was 46 nM. The viability, T/C [1] was 58.7%, the viability, T/C [2] was 45.8% and the viability, T/C [3] was 34.9%. For the same molecule, the viability, T/C [4] was 32.9%, the viability, T/C [5] was 25.2% and the viability, T/C [6] was 13.9%. It also gave a viability, T/C [7] of 60.5%, a viability, T/C [8] of 49.3% and a viability, T/C [9] of 34.3%. The viability, T/C [10] was 32.7%, the viability, T/C [11] was 28.2% and the viability, T/C [12] was 12.7%. For the same molecule, the viability, T/C [13] was 74.8%, the viability, T/C [14] was 49% and the viability, T/C [15] was 36.5%. For the same molecule, the viability, T/C [16] was 37.1%, the viability, T/C [17] was 28.6% and the viability, T/C [18] was 15.4%. It also gave a viability, T/C [19] of 68.5%, a viability, T/C [20] of 44.6% and a viability, T/C [21] of 44.3%. It also gave a viability, T/C [22] of 35.6%, a viability, T/C [23] of 36.1% and a viability, T/C [24] of 12.4%. It also gave a viability, T/C [25] of 61.8%, a viability, T/C [26] of 55.9% and a viability, T/C [27] of 35.1%. The viability, T/C [28] was 39.6%, the viability, T/C [29] was 25.6% and the viability, T/C [30] was 9.44%. It also gave a viability, T/C [31] of 58.5%, a viability, T/C [32] of 34.5% and a viability, T/C [33] of 27.6%. The viability, T/C [34] was 23.7%, the viability, T/C [35] was 26.6% and the viability, T/C [36] was 3.21%.
CCc1c2c(nc3ccc(O)cc13)-c1cc3c(c(=O)n1C2)COC(=O)[C@]3(O)CC + Cc1cnc(CNC(=O)c2c(=O)c3ccc(N4CCCN(C)CC4)nc3n3c2sc2ccccc23)cn1 was tested, and the IC50 (second compound 0.0316 µM) was 18 nM, the IC50 (second compound 0.1 µM) was 14.9 nM and the IC50 (second compound 0.316 µM) was 16.4 nM. It also gave an IC50 (second compound 1 µM) of 22.2 nM, an IC50 (second compound 3.16 µM) of 12.8 nM and an IC50 (second compound 10 µM) of less than 0.999 nM. For the same molecule, the viability, T/C (second compound 0.0316 µM, first compound 0.000999 µM) was 62.5%, the viability, T/C (second compound 0.0316 µM, first compound 0.00316 µM) was 68% and the viability, T/C (second compound 0.0316 µM, first compound 0.00999 µM) was 55.6%. The viability, T/C [1] was 42.6%, the viability, T/C (second compound 0.0316 µM, first compound 0.0999 µM) was 27.3% and the viability, T/C [3] was 15.3%. For the same molecule, the viability, T/C (second compound 0.1 µM, first compound 0.000999 µM) was 58.7%, the viability, T/C (second compound 0.1 µM, first compound 0.00316 µM) was 56.1% and the viability, T/C (second compound 0.1 µM, first compound 0.00999 µM) was 60.4%. For the same molecule, the viability, T/C [7] was 34.1%, the viability, T/C (second compound 0.1 µM, first compound 0.0999 µM) was 22.6% and the viability, T/C [9] was 15%. For the same molecule, the viability, T/C (second compound 0.316 µM, first compound 0.000999 µM) was 69.3%, the viability, T/C (second compound 0.316 µM, first compound 0.00316 µM) was 76.8% and the viability, T/C (second compound 0.316 µM, first compound 0.00999 µM) was 45.4%. The viability, T/C [13] was 47.3%, the viability, T/C (second compound 0.316 µM, first compound 0.0999 µM) was 21.5% and the viability, T/C [15] was 2.76%. It also gave a viability, T/C (second compound 1 µM, first compound 0.000999 µM) of 68.5%, a viability, T/C (second compound 1 µM, first compound 0.00316 µM) of 63.5% and a viability, T/C (second compound 1 µM, first compound 0.00999 µM) of 64.2%. For the same molecule, the viability, T/C [19] was 43.3%, the viability, T/C (second compound 1 µM, first compound 0.0999 µM) was 19.6% and the viability, T/C [21] was 0.43%. For the same molecule, the viability, T/C (second compound 3.16 µM, first compound 0.000999 µM) was 70.3%, the viability, T/C (second compound 3.16 µM, first compound 0.00316 µM) was 63% and the viability, T/C (second compound 3.16 µM, first compound 0.00999 µM) was 55.8%. It also gave a viability, T/C [25] of 27.9%, a viability, T/C (second compound 3.16 µM, first compound 0.0999 µM) of 0.43% and a viability, T/C [27] of 0.31%. For the same molecule, the viability, T/C (second compound 10 µM, first compound 0.000999 µM) was 54%, the viability, T/C (second compound 10 µM, first compound 0.00316 µM) was 39.5% and the viability, T/C (second compound 10 µM, first compound 0.00999 µM) was 44%. It also gave a viability, T/C [31] of 1.02%, a viability, T/C (second compound 10 µM, first compound 0.0999 µM) of 0.4% and a viability, T/C [33] of 0.35%.
